Measurements from patent US11560372B2, “Heterocyclic compounds useful as modulators of acetylcholine receptors” (TAKEDA PHARMACEUTICAL COMPANY LIMITED, priority 2017, dated 2023).

Legend:
MDR1 = biological target: T1, MDR1 (Homo sapiens, UniProt P08183); test: MDR1 membrane permeability test; assay type: in vitro ADME; conditions: pH 7.4, efflux ratio (ER), Papp B to A / A to B, human MDR1-expressing LLC-PK1 cells, read-out: MDR1 substrate screening 1 μM (MDRSUB1)/Ratio (NUMBER)
T1 construct: expressed in transfected cells
Method in brief: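 Human MDR1-expressing LLC-PK1 cells were grown for 3 days on 96-well polyethylene terephthalate Transwell supports (0.4 μm pores, 0.143 cm^2) seeded at 3.45×10^4 cells/well. After a 30 min preincubation in M199 medium with 10 mmol/L HEPES and 1% BSA (pH 7.4), drug was added apically or basolaterally. After 1 hr at 37° C, the opposite side was sampled and analyzed by LC-MS/MS. Efflux ratio was calculated from Papp B to A versus A to B.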

[1] = biological target: T2, human M1 receptor (hCHRM1) (Homo sapiens, UniProt P11229); test: Measurement of M1 receptor positive allosteric modulator (M1PAM) activity, calcium fluorescence in CHO-K1 cells; assay type: cell-based; conditions: for activity (%) at 10 μM: 10 μM test compound, 100% = acetylcholine final concentration 1 μM, 0% = DMSO; for EC50: inflection point of concentration-dependent curve, in the presence of acetylcholine at EC20 concentration (final 0.8-1.0 nM), read-out: IP value
T2 construct: expressed in transfected cells
T2 sequence (P11229 1-460): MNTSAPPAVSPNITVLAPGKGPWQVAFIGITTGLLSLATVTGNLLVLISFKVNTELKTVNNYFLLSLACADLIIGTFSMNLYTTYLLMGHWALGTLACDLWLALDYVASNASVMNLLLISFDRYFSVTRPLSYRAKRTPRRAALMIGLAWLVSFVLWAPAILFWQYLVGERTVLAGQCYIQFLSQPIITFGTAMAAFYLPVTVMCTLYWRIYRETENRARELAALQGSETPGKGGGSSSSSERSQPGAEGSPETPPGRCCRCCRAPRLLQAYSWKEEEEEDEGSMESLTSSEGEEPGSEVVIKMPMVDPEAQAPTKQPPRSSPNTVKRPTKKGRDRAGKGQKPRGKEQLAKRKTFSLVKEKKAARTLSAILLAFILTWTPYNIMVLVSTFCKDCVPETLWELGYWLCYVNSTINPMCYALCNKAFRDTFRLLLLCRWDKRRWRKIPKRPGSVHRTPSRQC
Experimental: Measurement of M1 Receptor Positive Allosteric Modulator (M1PAM) Activity
The activity of a test compound in the presence of acetylcholine at EC20 concentration (final concentration 0.8-1.0 nM), which affords an action corresponding to about 20% of the maximum activity, was measured as PAM activity. The method is as follows. CHO-K1 cells stably expressing a human M1 receptor (hCHRM1) were plated on a 384-well black clear bottom plate (BD Falcon) at 5,000 cells/well, and cultured in an incubator at 37° C., 5% CO2 for 1 day. The medium in the cell plate was removed, and assay buffer A containing calcium indicator (Recording medium (DOJINDO LABORATORIES), 0.1% BSA (Wako Pure Chemical Industries, Ltd.), 2.5 μg/mL Fluo-4 AM (DOJINDO LABORATORIES), 0.08% Pluronic F127 (DOJINDO LABORATORIES), 1.25 mM probenecid (DOJINDO LABORATORIES)) was added at 30 μL/well. The cells were left standing in the incubator at 37° C., 5% CO2 for 30 min, and further left standing at room temperature for 30 min. A test compound prepared by diluting with assay buffer B (HBSS (Invitrogen), 20 mM HEPES (Invitrogen), 0.1% BSA) containing 3.2-4.0 nM acetylcholine was added at 10 μL/well, and the fluorescence was measured by FDSS/pCELL (Hamamatsu Photonics K.K.) for 1 min every for 1 second. With the definition that the amount of change in the fluorescence on addition of acetylcholine (final concentration 1 μM) is 100% and that on addition of DMSO instead of a test compound is 0%, the activity (%) of the test compound was calculated, and the inflection point in the concentration-dependent curve of the test compound was calculated as IP values.

T1 sequence (P08183 whole entry): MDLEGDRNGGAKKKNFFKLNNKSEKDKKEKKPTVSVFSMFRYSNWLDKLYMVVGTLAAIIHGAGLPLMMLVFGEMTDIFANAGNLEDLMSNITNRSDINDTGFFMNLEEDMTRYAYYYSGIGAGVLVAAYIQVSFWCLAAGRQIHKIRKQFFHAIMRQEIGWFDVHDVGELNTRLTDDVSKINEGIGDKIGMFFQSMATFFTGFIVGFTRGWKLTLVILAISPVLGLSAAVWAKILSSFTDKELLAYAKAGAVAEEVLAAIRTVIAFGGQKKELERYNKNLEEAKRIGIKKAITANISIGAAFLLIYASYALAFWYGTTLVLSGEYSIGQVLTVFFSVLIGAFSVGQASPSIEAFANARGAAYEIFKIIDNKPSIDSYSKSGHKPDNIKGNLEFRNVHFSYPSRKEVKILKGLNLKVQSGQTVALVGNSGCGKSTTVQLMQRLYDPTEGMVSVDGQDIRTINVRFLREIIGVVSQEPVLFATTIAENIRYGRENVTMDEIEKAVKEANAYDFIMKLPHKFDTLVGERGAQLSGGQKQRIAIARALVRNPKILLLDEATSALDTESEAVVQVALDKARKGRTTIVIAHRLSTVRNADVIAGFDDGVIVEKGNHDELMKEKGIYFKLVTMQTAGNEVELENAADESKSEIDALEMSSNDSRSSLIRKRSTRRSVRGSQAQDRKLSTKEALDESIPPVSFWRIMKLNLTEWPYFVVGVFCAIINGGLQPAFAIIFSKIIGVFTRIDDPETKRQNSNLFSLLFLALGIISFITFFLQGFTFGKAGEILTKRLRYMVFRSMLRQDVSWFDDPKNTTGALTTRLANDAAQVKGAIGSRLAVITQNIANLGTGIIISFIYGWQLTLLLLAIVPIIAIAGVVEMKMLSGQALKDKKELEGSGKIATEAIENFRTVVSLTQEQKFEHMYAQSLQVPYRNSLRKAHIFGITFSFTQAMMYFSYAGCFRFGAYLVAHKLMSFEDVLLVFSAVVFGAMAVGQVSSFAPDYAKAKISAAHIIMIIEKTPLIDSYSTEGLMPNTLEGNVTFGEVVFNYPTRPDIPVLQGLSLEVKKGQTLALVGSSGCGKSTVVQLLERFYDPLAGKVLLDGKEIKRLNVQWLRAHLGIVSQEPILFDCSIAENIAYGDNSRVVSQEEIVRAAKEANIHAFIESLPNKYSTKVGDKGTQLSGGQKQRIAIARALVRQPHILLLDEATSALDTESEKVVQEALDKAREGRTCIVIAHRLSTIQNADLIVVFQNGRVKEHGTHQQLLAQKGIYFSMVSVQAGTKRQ

Compound | efflux ratio at 1 hr, 1 μM (MDR1) | activity (%) at 10 μM [1] | EC50 [1]
Cc1c(Cc2ccc(C(=O)NCCO)cc2)cc2c(=O)n([C@H]3CCOC[C@@H]3O)cnc2c1C [Example 50, 1,5-anhydro-2,3-dideoxy-3-(6-(4-((2-hydroxyethyl)carbamoyl)benzyl)-7,8-dimethyl-4-oxoquinazolin-3 (4H)-yl)-L-threo-pentitol] | 13 | 103% | 0.8 nM
Cc1c(Cc2ccc(-c3cnn(C4CC4)c3)nc2)cc2c(=O)n([C@H]3CCOC[C@@H]3O)cnc2c1C [Example 56, 1,5-anhydro-3-(6-((6-(1-cyclopropyl-1H-pyrazol-4-yl)pyridin-3-yl)methyl)-7,8-dimethyl-4-oxoquinazolin-3 (4H)-yl)-2,3-dideoxy-L-threo-pentitol] | 4.9 | 107% | 2.1 nM
COc1cc2ncn([C@H]3CCOC[C@@H]3O)c(=O)c2cc1Cc1ccc(-c2cnn(C)c2)nc1 [Example 58, 1,5-anhydro-2,3-dideoxy-3-(7-methoxy-6-((6-(1-methyl-1H-pyrazol-4-yl)pyridin-3-yl)methyl)-4-oxoquinazolin-3 (4H)-yl)-L-threo-pentitol] | 19 | 103% | 1.9 nM
Cc1c(Cc2ccc(-c3ccn(C)n3)nc2)cc2c(=O)n([C@H]3CCOC[C@@H]3O)nnc2c1C [Example 59, 1,5-anhydro-2,3-dideoxy-3-(7,8-dimethyl-6-((6-(1-methyl-1H-pyrazol-3-yl)pyridin-3-yl)methyl)-4-oxo-1,2,3-benzotriazin-3 (4H)-yl)-L-threo-pentitol] | 3.7 | 108% | 2.6 nM
COc1cc2ncn([C@H]3CCOC[C@@H]3O)c(=O)c2cc1Cc1ccc(-c2cn(C)cn2)cc1 [Example 61, 1,5-anhydro-2,3-dideoxy-3-(7-methoxy-6-(4-(1-methyl-1H-imidazol-4-yl)benzyl)-4-oxoquinazolin-3 (4H)-yl)-L-threo-pentitol] | 32 | 108% | 2.2 nM
Cc1c(Cc2ccc(C(=O)NC3(C)COC3)c(F)c2)cc2c(=O)n([C@H]3CCOC[C@@H]3O)cnc2c1C [Example 65, 1,5-anhydro-2,3-dideoxy-3-(6-(3-fluoro-4-((3-methyloxetan-3-yl)carbamoyl)benzyl)-7,8-dimethyl-4-oxoquinazolin-3 (4H)-yl)-L-threo-pentitol] | 15 | 109% | 3 nM

Results, then the molecule that gave them:

efflux ratio at 1 hr, 1 μM (MDR1) | activity (%) at 10 μM [1] | EC50 [1] | Compound
9.5 | 106% | 0.99 nM | Cc1c(Cc2ccc(-c3cnn(C)c3)nc2)cc2c(=O)n([C@H]3CCOC[C@@H]3O)nnc2c1Cl [Example 54, 1,5-anhydro-3-(8-chloro-7-methyl-6-((6-(1-methyl-1H-pyrazol-4-yl)pyridin-3-yl)methyl)-4-oxo-1,2,3-benzotriazin-3 (4H)-yl)-2,3-dideoxy-L-threo-pentitol]
9.4 | 107% | 2.5 nM | Cc1c(Cc2ccc(-c3cn(C)nn3)nc2)cc2c(=O)n([C@H]3CCOC[C@@H]3O)nnc2c1C [Example 62, 1,5-anhydro-2,3-dideoxy-3-(7,8-dimethyl-6-((6-(1-methyl-1H-1,2,3-triazol-4-yl)pyridin-3-yl)methyl)-4-oxo-1,2,3-benzotriazin-3 (4H)-yl)-L-threo-pentitol]
19 | 106% | 1.7 nM | Cc1c(Cc2ccc(C(=O)NCC(=O)N(C)C)c(F)c2)cc2c(=O)n([C@H]3CCOC[C@@H]3O)cnc2c1C [Example 68, 1,5-anhydro-2,3-dideoxy-3-(6-(4-((2-(dimethylamino)-2-oxoethyl)carbamoyl)-3-fluorobenzyl)-7,8-dimethyl-4-oxoquinazolin-3 (4H)-yl)-L-threo-pentitol]
